The text below walks through data of ChEMBL document CHEMBL1201862, “PubChem BioAssay data set” (2004).

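Step 1: Grow cells in 96-well plates. Step 2: Expose to compound for 48 hours at 5 concentrations. Step 3: Interpolate endpoints linearly; if unreached, use highest concentration. GI50 is the concentration that inhibits growth by half.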 The source made the active and inactive calls. Rule as the data show it: active = GI50 up to about 1.1 µM and inactive = higher. Bounds are passed on as bounds.

One may read the GI50 as the concentration giving 50% growth inhibition.

Some test systems named below: A549; ACHN; CAKI-1; EKVX; IGROV-1; KM12; LOX IMVI; MOLT-4; NCI-H522; NCI/ADR-RES; OVCAR-4; RXF 393; SF-268; SF-295; SK-MEL-2; SK-MEL-5; SK-OV-3; SW-620; TK-10; SN12C.
Common to all, as to assay: DTP human tumour cell line panel, 48 h

With `CC(C(=O)NCCNC(=O)CCC(=O)N(C)O)C(=O)NCCNC(=O)CCC(=O)N(C)O`, the GI50 in the assay with A549, in the assay with ACHN, with CAKI-1, with EKVX, in the assay on IGROV-1 and in the assay with KM12 was > 100 µM (inactive) throughout. Further, the GI50 in the assay with LOX IMVI, in the assay on MOLT-4, with NCI-H522, with NCI/ADR-RES, in the assay with OVCAR-4 and in the assay on RXF 393 was > 100 µM (inactive) each time. For the same compound, the GI50 is > 100 µM (inactive) in the assay on SF-268; > 100 µM (inactive) with SF-295; > 100 µM (inactive) in the assay with SK-MEL-2; 97.9 µM (inactive) in the assay with SK-MEL-5; > 100 µM (inactive) with SK-OV-3; > 100 µM (inactive) in the assay with SW-620. Besides, the GI50 with TK-10 was > 100 µM (inactive).

As for `S=P1(N2CCCCC2)Oc2ccc3ccccc3c2-c2c(ccc3ccccc23)O1`, the GI50 with A549 was > 89.5 µM (inactive); in the assay with CAKI-1, > 44.6 µM (inactive); in the assay with EKVX it was > 53.5 µM (inactive); in the assay with IGROV-1, > 100 µM (inactive); in the assay with KM12, > 100 µM (inactive); with LOX IMVI it was 60.4 µM (inactive). The GI50 in the assay with MOLT-4 is > 100 µM (inactive); in the assay on NCI-H522, 37.8 µM (inactive); in the assay with NCI/ADR-RES it was > 51.2 µM (inactive); with OVCAR-4, 27.5 µM (inactive); with RXF 393 it was > 89.7 µM (inactive); with SF-268, > 82.2 µM (inactive). Also, the GI50 in the assay with SF-295 is 53.7 µM (inactive); in the assay on SK-MEL-2, 31.6 µM (inactive); in the assay on SK-MEL-5 it was > 71.4 µM (inactive); in the assay on SK-OV-3 it was > 92.5 µM (inactive); in the assay with SN12C it was > 100 µM (inactive); in the assay with SW-620, > 100 µM (inactive).

On to `C(=C/c1nc2ccccc2o1)/c1ccc2c(c1)OCO2`, for which the GI50 is 18.7 µM (inactive) with A549; 9.82 µM (inactive) in the assay with CAKI-1; 55.5 µM (inactive) in the assay on EKVX; 16.1 µM (inactive) in the assay on IGROV-1; 4.91 µM (inactive) with KM12; 6.59 µM (inactive) in the assay with LOX IMVI. Moreover, the GI50 with MOLT-4 is 45.7 µM (inactive); in the assay on NCI-H522, 7.74 µM (inactive); in the assay with NCI/ADR-RES, 14.1 µM (inactive); in the assay with OVCAR-4, 13.1 µM (inactive); in the assay with RXF 393 it was 14.7 µM (inactive); in the assay on SF-268, 19.8 µM (inactive). Moreover, the GI50 was 8.04 µM (inactive) in the assay on SF-295; 8.34 µM (inactive) in the assay on SK-MEL-2; 8.41 µM (inactive) in the assay with SK-MEL-5; 27.2 µM (inactive) in the assay with SK-OV-3; 58.6 µM (inactive) in the assay with SN12C; 16.7 µM (inactive) with SW-620.

Consider `COC(=O)Cc1c([C@H]2[C@H](CC(=O)OC)c3ccccc3N2C(=O)C(F)(F)F)[nH]c2ccccc12`, for which the GI50 in the assay on A549 was 31.3 µM (inactive); with ACHN it was 29.8 µM (inactive); with CAKI-1 it was 41.3 µM (inactive); with EKVX, 26.8 µM (inactive); in the assay with IGROV-1, 2.83 µM (inactive); in the assay on LOX IMVI, 26.4 µM (inactive). For the same compound, the GI50 in the assay with MOLT-4 is 9.02 µM (inactive); with NCI-H522 it was 12 µM (inactive); in the assay on NCI/ADR-RES, 21.5 µM (inactive); in the assay on OVCAR-4, 56.6 µM (inactive); in the assay with RXF 393, 20 µM (inactive); in the assay on SF-268 it was 27.4 µM (inactive). Also, the GI50 with SF-295 was 18.1 µM (inactive); in the assay on SK-MEL-2 it was 25 µM (inactive); in the assay on SK-MEL-5, 11.6 µM (inactive); in the assay on SK-OV-3, 28.5 µM (inactive); with SN12C, 46.1 µM (inactive); with SW-620, 32.4 µM (inactive). In addition, the GI50 in the assay with TK-10 is 51.4 µM (inactive).

On to `COc1ccc(-c2csc3c2[N+]2(C)C=CC=C2C3N2CCCC2)cc1` (centres undefined), for which the GI50 in the assay with A549 is 39.9 µM (inactive); with ACHN, 44.8 µM (inactive); in the assay with CAKI-1, > 100 µM (inactive); in the assay on EKVX it was 20.5 µM (inactive); with IGROV-1 it was 11.2 µM (inactive); with KM12, 15.3 µM (inactive). For the same compound, the GI50 in the assay on LOX IMVI is 35 µM (inactive); with MOLT-4 it was 27.5 µM (inactive); in the assay on NCI-H522 it was 2.43 µM (inactive); with NCI/ADR-RES, 17.3 µM (inactive); with OVCAR-4 it was 46.8 µM (inactive); in the assay on RXF 393, 21.3 µM (inactive). Besides, the GI50 is 22 µM (inactive) in the assay on SF-268; 10.6 µM (inactive) in the assay on SF-295; 10.6 µM (inactive) with SK-MEL-2; 8.59 µM (inactive) in the assay on SK-MEL-5; 49.1 µM (inactive) with SK-OV-3; 24.4 µM (inactive) in the assay on SW-620. In the assay on TK-10, the GI50 was 48.9 µM (inactive).

With `CCOC(=O)C(NC(=O)N(C1=NCC(C)S1)C1CCCCC1)(OC)C(F)(F)F` (centres undefined), the GI50 in the assay with A549 was 39.1 µM (inactive); with ACHN, 31.2 µM (inactive); in the assay with CAKI-1, 34.6 µM (inactive); in the assay with EKVX, 34.8 µM (inactive); in the assay on KM12, 33 µM (inactive); with LOX IMVI, 19.7 µM (inactive). The GI50 in the assay with MOLT-4 was 37.8 µM (inactive); in the assay on NCI-H522 it was 27.7 µM (inactive); with NCI/ADR-RES, 65.5 µM (inactive); with OVCAR-4 it was 40.3 µM (inactive); in the assay on RXF 393, 17.9 µM (inactive); in the assay with SF-268 it was 32.6 µM (inactive). The GI50 is 49.8 µM (inactive) in the assay on SF-295; 34 µM (inactive) in the assay on SK-MEL-2; 23.8 µM (inactive) in the assay with SK-MEL-5; 52.4 µM (inactive) with SK-OV-3; 15.1 µM (inactive) in the assay on SN12C; 35.2 µM (inactive) in the assay with SW-620. Also, the GI50 in the assay on TK-10 was 57.5 µM (inactive).

With `COc1ccc(N(C)C(=O)N(C)c2ccc([N+](=O)[O-])cc2)cc1`, the GI50 with A549 is 58.1 µM (inactive); in the assay on ACHN, > 100 µM (inactive); in the assay on CAKI-1, 41.6 µM (inactive); in the assay with EKVX, 65.2 µM (inactive); in the assay with IGROV-1, 43.2 µM (inactive); in the assay with KM12 it was 18.8 µM (inactive). For the same compound, the GI50 in the assay with LOX IMVI was 33.1 µM (inactive); in the assay on MOLT-4 it was > 100 µM (inactive); in the assay with NCI-H522, 23.8 µM (inactive); in the assay with NCI/ADR-RES, 23.6 µM (inactive); in the assay on OVCAR-4, 11.2 µM (inactive); in the assay on RXF 393, 14.3 µM (inactive). In addition, the GI50 in the assay with SF-268 was 82 µM (inactive); with SK-MEL-2, 14.5 µM (inactive); in the assay with SK-MEL-5 it was 38.8 µM (inactive); in the assay with SK-OV-3 it was 17.7 µM (inactive); in the assay on SN12C it was 61.4 µM (inactive); in the assay on SW-620, 23.3 µM (inactive). Also, in the assay with TK-10, the GI50 was 10.5 µM (inactive).

As to `CC(C)(CN1CCCCC1)C(=O)/C=C/c1c(Cl)cccc1Cl`, the GI50 in the assay on A549 is 1.95 µM (inactive); in the assay on ACHN, 1.49 µM (inactive); in the assay on CAKI-1, 1.08 µM (active); with EKVX it was 0.834 µM (active); in the assay with IGROV-1 it was 0.192 µM (active); in the assay with KM12, 0.867 µM (active). Further, the 50% growth inhibitory concentration (GI50) in the assay on LOX IMVI was 0.811 µM (active); in the assay on MOLT-4 it was 0.918 µM (active); in the assay on NCI-H522, 0.124 µM (active); in the assay with NCI/ADR-RES, 1.86 µM (inactive); in the assay on OVCAR-4, 1.73 µM (inactive); in the assay with RXF 393, 0.701 µM (active). Besides, the GI50 with SF-268 is 1.13 µM (inactive); in the assay on SF-295, 2.64 µM (inactive); in the assay on SK-MEL-2 it was 1.49 µM (inactive); in the assay on SK-MEL-5, 1.42 µM (inactive); in the assay on SK-OV-3, 2.49 µM (inactive); with SN12C, 1.49 µM (inactive). Besides, the GI50 in the assay with SW-620 was 0.927 µM (active); in the assay on TK-10, 0.627 µM (active).

`CCCCCCc1cc2cc(C(=O)Nc3nc(C45CC6CC(CC(C6)C4)C5)cs3)c(=O)oc2cc1O`: the GI50 is 17.7 µM (inactive) in the assay with A549; 4.43 µM (inactive) in the assay on ACHN; 8.81 µM (inactive) in the assay on CAKI-1; 17.9 µM (inactive) with EKVX; 10.4 µM (inactive) in the assay with IGROV-1; 11 µM (inactive) in the assay on KM12. The GI50 was 11.2 µM (inactive) in the assay with LOX IMVI; 15.1 µM (inactive) in the assay on MOLT-4; 3.45 µM (inactive) with NCI-H522; 17.3 µM (inactive) with NCI/ADR-RES; 11.1 µM (inactive) with OVCAR-4; 8.24 µM (inactive) with RXF 393. The GI50 in the assay on SF-268 is 9.57 µM (inactive); with SF-295 it was 4.06 µM (inactive); in the assay with SK-MEL-2, 12.3 µM (inactive); with SK-MEL-5, 11.9 µM (inactive); in the assay with SK-OV-3, 20.3 µM (inactive); in the assay on SN12C, 5.53 µM (inactive). For the same compound, the GI50 with SW-620 was 19 µM (inactive); in the assay with TK-10, 11.3 µM (inactive).

As to `Cc1ccc(N2Cc3c(ccc4ccccc34)OP2(=O)Oc2ccc(Cl)c(C)c2)cc1` (centres undefined), the GI50 is > 94.6 µM (inactive) in the assay with A549; > 100 µM (inactive) in the assay with CAKI-1; > 100 µM (inactive) with EKVX; > 100 µM (inactive) in the assay with IGROV-1; > 84.3 µM (inactive) in the assay on KM12; > 100 µM (inactive) in the assay on LOX IMVI. Besides, the GI50 was 14.2 µM (inactive) in the assay on MOLT-4; 39.9 µM (inactive) in the assay with NCI-H522; > 78.7 µM (inactive) in the assay with NCI/ADR-RES; > 100 µM (inactive) in the assay on OVCAR-4; > 79.4 µM (inactive) in the assay on RXF 393; > 100 µM (inactive) with SF-268. The GI50 in the assay with SF-295 was > 51.2 µM (inactive); with SK-MEL-2, > 100 µM (inactive); in the assay on SK-MEL-5, > 100 µM (inactive); in the assay with SK-OV-3, > 100 µM (inactive); in the assay with SN12C, > 100 µM (inactive); with SW-620, > 81.8 µM (inactive).
